Measured values taken from patent US10653704B2, “Inhalable formulation” (Teva Branded Pharmaceutical Products R&D, Inc., priority 2014, dated 2020).

Experiments:
Type in all cases: physicochemical
[1] = Particle size distribution by Malvern, conditioning studies untreated versus treated
Protocol: Fluticasone propionate was conditioned in a drug-addition vessel. A 5% concentration of fluticasone propionate in HFA134a was treated at 40° C. for 48-72 h with a gentle rocking motion. HFA134a was vented and the remaining material was assessed in regard to its amorphous content.

[2] = Amorphous content after conditioning in HFA134a
Protocol: Heating is performed at a temperature of 30-50° C., more preferably at a temperature of 35-45° C., and most preferably at a temperature of 38-42° C. The heating step, in the presence of the propellant, is a conditioning step for the API, in order to reduce the amorphous content of the API, without affecting the PSD. Amorphous content may be determined by solution microcalorimetry. Fluticasone propionate was conditioned in a drug-addition vessel. A 5% concentration of fluticasone propionate in HFA134a was treated at 40° C. for 48-72 h with a gentle rocking motion. HFA134a was vented and the remaining material was assessed in regard to its amorphous content.

[3] = Scanning electron microscope images pre- and post-conditioning; conditions: post-conditioning versus pre-conditioning, Experiments 1 and 2
From the text: FIGS. 1 and 2 show scanning electron microscope images of fluticasone propionate, pre-conditioning (the first image in each Figure) and post-conditioning (the second image in each Figure). FIGS. 1 and 2 are taken from Experiments 1 and 2 in Table 1 and show scanning electron microscopic images of fluticasone propionate, pre-conditioning (the first image in each Figure) and post-conditioning (the second image in each Figure).

[4] = Particle size distribution by Malvern, conditioning studies untreated versus treated; remark: listed apart in the source
[5] = Experiment 1, 5% in HFA134a, 40° C. for 48-72 h (with agitation)
[6] = Experiment 1, 5% in HFA134a, 40° C. for 72 h (with agitation)
[7] = Experiment 2, 5% in HFA134a, 40° C. for 48-72 h (with agitation)
[8] = Experiment 1, Control (untreated)
[9] = Experiment 2, Control (untreated)

Particle size distribution by Malvern D10 [1, 5]: 0.6 μm | Particle size distribution by Malvern D90 [1, 5]: 3.2 μm | Particle size distribution by Malvern D10 [1, 6]: 0.6 μm | Particle size distribution by Malvern D90 [1, 6]: 2.9 μm | Particle size distribution by Malvern D10 [1, 7]: 0.7 μm | Particle size distribution by Malvern D50 [1, 7]: 2.0 μm | Amorphous content [2, 5]: 2.3% | Amorphous content [2, 6]: 1.1% | Amorphous content [2, 8]: 7.2% | Amorphous content [2, 7]: 1.1% | Amorphous content [2, 9]: 2.3% | Crystallinity by SEM images [3]: increased crystallinity | Particle size distribution by Malvern D50 [4, 5]: 1.5 μm | Particle size distribution by Malvern D50 [4, 6]: 1.4 μm | Particle size distribution by Malvern D10 [4, 8]: 0.6 μm | Particle size distribution by Malvern D50 [4, 8]: 1.5 μm | Particle size distribution by Malvern D90 [4, 8]: 3.2 μm | Particle size distribution by Malvern D90 [4, 7]: 4.7 μm | Particle size distribution by Malvern D10 [4, 9]: 0.6 μm | Particle size distribution by Malvern D50 [4, 9]: 1.7 μm | Particle size distribution by Malvern D90 [4, 9]: 5.0 μm
SMILES: CCC(=O)O[C@]1(C(=O)SCF)[C@H](C)C[C@H]2[C@@H]3C[C@H](F)C4=CC(=O)C=C[C@]4(C)[C@@]3(F)[C@@H](O)C[C@@]21C [fluticasone propionate]
